Read-outs that look alike come from different tables or passages of the source.

For data set [1], the system named is chloroquine-sensitive clone D6 of P. falciparum. Kind of data set: Antimalarial activity assay, SYBR Green I fluorescence-based method. It is filed as cell-based, Plasmodium falciparum. Particulars: for IC50 / IC90: P. falciparum D6, 72 hours; for IC50: read-out: Antimalarial IC50 (D6); for IC90: read-out: Antimalarial IC90 (D6). As to the method: (§1) An antimalarial activity assay was carried out at the Oregon Translational Research and Drug Development Institute (OTRADI). Two strains of P. falciparum were used. The chloroquine-sensitive clone D6, and chloroquine-resistant and MDR clone Dd2 was obtained from the Malaria Research and Reference Reagent Resource Center (MR4) (Manassas, Va.). The parasites were cultured according to the method of Trager and Jensen (Trager and Jensen, Science, 1976, 193:673-675), with minor modifications. The cultures were maintained in human erythrocytes (Lampire Biological Laboratories, Pipersville, Pa.), suspended at 2% hematocrit in RPMI 1640 (Sigma) containing 0.5% Albumax (Invitrogen), […] hypoxanthine (Lancaster), and 50 μg/L gentamicin (Invitrogen), and incubated at 37° C. under a gas mixture of 5% O2, 5% CO2, and 90% N2. In vitro antimalarial activity was determined by a SYBR Green I fluorescence-based method described previously by Smilkstein et al. (Smilkstein et al., Antimicrob. Agents Chemother., 2004, 48:1803-1806). Frozen stock solutions of each test drug (1 mM in DMSO) were thawed, warmed to 37° C., and mixed thoroughly prior to use. Drug solutions were serially diluted with culture medium, and distributed to asynchronous parasite cultures on 96-well plates in quadruplicate in a total volume of 100 μL to achieve 0.2% parasitemia with a 2% hematocrit in a total volume of 100 μL. Automated pipeting and dilution was carried using programmable Precision XS (Bio-Tek, Winooski, Vt.) and Sciclone ALH3000 (Caliper, Hopkinton, Mass.) robotic stations. The plates then were incubated for 72 hours at temperature and gas conditions described above. After incubation, 100 μL of lysis buffer with SYBR Green I was added to each well. The plates were incubated at room temperature for 1 h and then placed in a 96-well fluorescence plate reader (Synergy4, BioTek, Winooski, Vt.) with excitation and emission wavelength at 485 nm and 528 nm, respectively, for measurement of fluorescence. The 50% inhibitory concentration (IC50) was determined by non-linear regression analysis of logistic dose-response curves (GraphPad Prism software).

The test system of data set [2] is chloroquine-resistant and MDR clone Dd2 of P. falciparum. Described as above. It is filed as cell-based, Plasmodium falciparum. The note with it: for IC50 / IC90: P. falciparum Dd2, 72 hours; for IC50: read-out: Antimalarial IC50 (Dd2); for IC90: read-out: Antimalarial IC90 (Dd2). As for the experimental part:
as §1

Data set [3] is described as follows: Cytotoxicity assay (WST-8) against HCT116 cells. It is filed as cell-based. The note with it: human, HCT116 colorectal carcinoma cells, estimated. As for the experimental part:
HCT116 (colorectal carcinoma) cells were seeded onto a 96-well plate at 10,000 cells per well. Cells were treated with either 5, 50, 500 or 5000 nM TM-025, TM-026, N-acetyl-glucosaminyl-3-aminoacetophenone or 5, 25, 50, 100 nM pactamycin in triplicate for 48 hours. For the narrow range concentration assays, cells were treated with either 0.5, 1, 2 or 4 μM TM-025; 1, 2, 3 or 5 μM TM-026; 0.5, 2, 5 or 7 μM N-acetylglucosaminyl-3-aminoacetophenone or 12.5, 25, 50, 100 nM pactamycin in triplicate for 24 or 48 hours. WST-8 [2-(2-methoxy-4-nitrophenyl)-3-[…], monosodium salt] (Dojindo, Rockville, Md.) was added to each well to give an orange-colored formazan product, which is soluble in tissue culture medium. Absorbance was measured at 450 nm. Percent of viable cells was calculated relative to the “No Treatment” and “Solvent Only” wells.

Data set [4] relates to Gram-positive and Gram-negative bacteria. Put plainly: Antibacterial agar diffusion and micro-dilution assays, all tested strains (Example 1). It is filed as cell-based, S. aureus, B. subtilis, P. aeruginosa, E. coli. Particulars: for antibacterial activity in agar diffusion and micro-dilution assays (in words): at the concentrations used; for IC50: consistently higher than pactamycin, mostly >1 mM, read-out: IC50 against all tested bacterial strains. As to the method: The antibacterial activity of pactamycin and its analogs was determined by agar diffusion and micro-dilution assays. E. coli, P. aeruginosa, B. subtilis or M. smegmatis, and S. aureus were streaked on nutrient agar (Difco or Beckton-Dickinson) and grown overnight at 37° C. Colonies were transferred to nutrient broth and incubated at 37° C. for 24 hours. Turbidity of the inoculum was measured to a proper density at 600 nm (BioRad, SmartSpec 3000). For plate preparation, inoculum (500 μL) was mixed thoroughly with warm nutrient agar (50 mL) and poured to 25 mL square plates. The agar plates were allowed to solidify and dry for 30 min before assay. Sterile blank paper disks (Becton-Dickinson) were impregnated with pactamycin and its analogs (20 μL) at various concentrations and dried at room temperature. The disks were placed onto inoculated agar plates and incubated at 37° C. for 24 hours. In order to produce a contrast background of the inhibition zone, 0.25% MTT developing dye (1 mL) was added over the plates.
Micro-dilution assays were performed in 96-well plates. The compounds were serially diluted and added to the bacterial suspension at final concentrations of 1 mM-10 nM, or 0.5 mM-10 nM. After incubation at 37° C. for 24 hours, 0.25% MTT developing dye (50 μL) was added. Each assay was done in triplicate.
Background: A growth-free zone around the sample is the usual read-out of agar diffusion tests.

The subject of another data set is Staphylococcus aureus. Kind of data set: Antibacterial agar diffusion assay (Example 2). It is filed as cell-based. As for the experimental part: (§2) Antibacterial activity of pactamycin and its analogues was determined by an agar diffusion assay. E. coli, Pseudomonas aeruginosa, Mycobacterium smegmatis, and Staphylococcus aureus were streaked on nutrient agar (Difco) and grown overnight at 37° C. Colonies were transferred to nutrient broth and incubated at 37° C. for 24 hours. Turbidity of the inoculum was measured to a proper density at 600 nm (BioRad, SmartSpec 3000). For plate preparation, inoculum (500 μL) was mixed thoroughly with warm nutrient agar (50 mL) and poured to 25 mL square plates. The agar plates were allowed to solidify and dry for 30 minutes before assay. Sterile blank paper disks (Becton-Dickinson) were impregnated with pactamycin and its analogues (20 μL) at various concentrations and dried at room temperature. The disks were placed onto inoculated agar plates and incubated at 37° C. for 24 hours. In order to produce a contrast background of the inhibition zone, 0.25% MTT developing dye (1 mL) was added over the plates.

Another data set concerns Pseudomonas aeruginosa. Put plainly: Antibacterial agar diffusion assay (Example 2). It is filed as cell-based. As to the method: as §2
The next data set relates to Mycobacterium smegmatis. Kind of data set: Antibacterial agar diffusion assay (Example 2). It is filed as cell-based. As for the experimental part:
as §2

In another data set the test system is E. coli. Kind of data set: Antibacterial agar diffusion assay (Example 2). It is filed as cell-based, Escherichia coli. As for the experimental part: as §2
Where [5] appears, read: Plasmodium falciparum, D6, 72 h.
Setting [6] is: Plasmodium falciparum, DD2, 72 h.

`CC(=O)N[C@H]1C(Nc2cccc(C(C)=O)c2)O[C@H](CO)[C@@H](O)[C@@H]1O` (stereo partly drawn) [N-acetylglucosaminyl-3-aminoacetophenone, reference compound]: the “antimalarial activity (in words)” value in data set [1] (P. falciparum D6) and in data set [2] (P. falciparum Dd2) was “lack of activity” each time.

For the compound `CC(=O)c1cccc(N[C@H]2[C@H](N)[C@](C)(NC(=O)N(C)C)[C@@](C)(O)[C@@]2(O)CO)c1` [TM-025, de-6MSA-7-demethyl-7-deoxypactamycin], the IC50 (as a rule, the concentration that gives 50% inhibition) is approximately 1.3 µM in data set [3]; approximately 0.025 µM in data set [1]; 0.025 to 0.03 µM in data set [1] (setting [5]); approximately 0.025 µM in data set [2]; 0.025 to 0.03 µM in data set [2] (setting [6]); more than 1000 µM in data set [4]. The IC90 (as a rule, the concentration needed for an effect of 90%) in data set [1] is approximately 0.062 µM; in data set [1] (setting [5]) it was 0.062 to 0.077 µM; in data set [2], approximately 0.076 µM; in data set [2] (setting [6]), 0.062 to 0.077 µM. For the same compound, the “antibacterial activity in agar diffusion and micro-dilution assays (in words)” value in data set [4] is recorded as “neither TM-025 nor TM-026 showed any significant activity”.

Regarding `CC(=O)c1cccc(N[C@H]2[C@H](N)[C@](C)(NC(=O)N(C)C)[C@@](C)(O)[C@@]2(O)COC(=O)c2c(C)cccc2O)c1` [TM-026, 7-demethyl-7-deoxypactamycin], the IC50 was approximately 3 µM in data set [3]; approximately 0.03 µM in data set [1]; 0.025 to 0.03 µM in data set [1] (setting [5]); approximately 0.026 µM in data set [2]; 0.025 to 0.03 µM in data set [2] (setting [6]); more than 1000 µM in data set [4]. Moreover, the IC90 in data set [1] was approximately 0.063 µM; in data set [1] (setting [5]) it was 0.062 to 0.077 µM; in data set [2], approximately 0.077 µM; in data set [2] (setting [6]), 0.062 to 0.077 µM. The “antibacterial activity in agar diffusion and micro-dilution assays (in words)” value in data set [4] is listed as “neither TM-025 nor TM-026 showed any significant activity”.

On to `C[C@@H]1CC[C@H]2[C@@H](C)C(=O)O[C@@H]3O[C@@]4(C)CC[C@@H]1[C@]32OO4` [artemisinin, reference compound], for which the EC50 (in general, the midpoint of the concentration-response curve) in data set [2] (Plasmodium falciparum, Example 2, FIG. 14, multi-drug resistant Dd2, read-out: EC50 against the Dd2 strain) turned out to be 0.007 µM.

With `CCN(CC)CCCC(C)Nc1ccnc2cc(Cl)ccc12` (stereo not drawn) [chloroquine, reference compound], in data set [1] (Plasmodium falciparum, D6, read-out: EC50 against the D6 strain), the EC50 stood at 0.01 µM.

Consider `CC(=O)c1cccc(N[C@H]2[C@H](N)[C@]3(NC(=O)O[C@H]3C)[C@@](C)(O)[C@@]2(O)CO)c1` [de-6MSA-pactamycate], for which, in the data set with Staphylococcus aureus, the “antibacterial activity, growth of Staphylococcus aureus” value was “no antibacterial activity”. In addition, in the data set with Pseudomonas aeruginosa, the “antibacterial activity, growth of Pseudomonas aeruginosa” value is “no antibacterial activity”. Also, the “antibacterial activity, growth of Mycobacterium smegmatis” value in the data set with Mycobacterium smegmatis was “no antibacterial activity”. For the same compound, the “antibacterial activity, growth of E. coli” value in the data set on E. coli is given as “no antibacterial activity”.

Source of the values: US20130231377A1, “PACTAMYCIN ANALOGS AND METHODS OF USE” (State of Oregon acting by and through the state Board of …, priority 2010, published 2013).
